What was measured:
C3H10T1/2 adipocytes [1] = assay: Immunoblot analysis of C3H10T1/2 adipocytes (PKA signaling, mitochondrial enzymes); format: cell-based; conditions: for levels of phosphorylated HSL, CREB and PKA substrates / mitochondrial enzymes, including MCAD, ATP5A, UQCRC2, SDHB, NDUFB8, and COXIV: 1 μM; for levels of phosphorylated HSL, CREB and PKA substrates: 24 or 48 hours, vs vehicle, FIG. 1A; for mitochondrial enzymes, including MCAD, ATP5A, UQCRC2, SDHB, NDUFB8, and COXIV: long-term treatment (48 hours), FIG. 1B
Procedure: (§1) C3H10T1/2 cells were purchased from the American Type Culture Collection (ATCC), and in vitro adipocyte experiments were performed using these cells, which were cultured in DMEM (Welgene) supplemented with 10% FBS (Gibco) and 1% P/S at 37° C. in a humidified atmosphere of 5% CO2. To prepare fully differentiated C3H10T1/2 adipocytes, confluent C3H10T1/2 cells were exposed to BMP4 (R&D system, 20 ng/ml) for 2 days, and induced in a differentiation medium containing IBMX (isobutylmethylxanthine, Cayman, 0.5 mM), dexamethasone (Cayman, 1 μM), insulin (Sigma, 10 μg/mL), indomethacin (Cayman, 0.125 mM), and triiodothyronine (T3, Cayman, 1 nM) for 3 days, then exposed to a maintenance medium containing insulin (1 μg/mL) and T3 (1 nM) for 3 days. To evaluate in vitro effects of lysoplasmalogen, the fully differentiated C3H10T1/2 cells were treated with vehicle control, LPE P-18:0 (1 μM) or LPC P-18:0 (1 μM), LPC P-16:0. (10 μM) or isoproterenol (10 μM) for an indicated time.
(§2) BAT, iWAT and gWAT of mice fed a HFD and administered vehicle control or LPE P-18:0 intraperitoneally were homogenized using the tacoPrep Bead Beater homogenization system in a PROPREP protein extraction solution (iNtRON Biotechnology) containing SIGMAFAST Protease Inhibitor Cocktail (Sigma) and PhoSTOP phosphatase inhibitor (Roche). C3H10T1/2 adipocytes treated with vehicle control, LPE P-18:0 (1 μM) or LPC P-18:0 (1 μM), LPC P-16:0 (10 µM) or isoproterenol (10 μM) were lysed in RIPA Lysis and Extraction Buffer (Thermo Fisher Scientific) containing SIGMAFAST protease inhibitor cocktail (Sigma) and PhoSTOP phosphatase inhibitor (Roche). The extracted protein concentration was quantified by BCA analysis and measured by spectrophotometry at 562 nm (MultiSkan GO, Thermo Fisher Scientific). Proteins were denatured in an SDS sample buffer at 95° C. for 5 min, separated in SDS-PAGE gel, and transferred to a PVDF membrane (Bio-Rad). The membrane was blocked with BSA in 5% non-fat dry milk or TBST (Tris-buffered saline containing 0.1% Tween 20) and incubated overnight along with the primary antibody at 4° C., then cultured with horseradish peroxidase (HRP)-conjugated secondary antibody for 1 hour at room temperature. The primary antibody used for Western blot analysis are listed in Reagents or Resources. Protein expression was detected by a Fusion Solo chemiluminescence imaging system (Vilber Lourmat) and analyzed with EvolutionCapt software (version 17.03). Immunoblots were quantified with National Institutes of Health ImageJ software (version 1.52a).

C3H10T1/2 adipocytes [2] = assay: Quantification of intracellular cAMP level (Direct cAMP ELISA); format: cell-based; conditions: 1 μM, 24 hours; FIG. 2A
Procedure: as §1, with “To evaluate in vitro effects of lysoplasmalogen, the fully differentiated C3H10T1/2 cells were treated with vehicle control, LPE P-18:0 (1 μM) or LPC P-18:0 (1 μM), LPC P-16:0. (10 μM) or isoproterenol (10 μM) for an indicated time.” left out
To measure intracellular CAMP levels in the differentiated C3H10T1/2 adipocytes treated with LPC P-18:0 (1 μM), LPE P-18:0 (1 μM) or isoproterenol (10 μM), The Direct CAMP ELISA Kit (Enzo) was used according to the manufacturer's instructions. […] The absorbance of the plate was measured at 405 nm, and the calculated absorbance was converted into pmol/ml of CAMP using AssayFit Pro (v1.31), and normalized to protein concentration measured with the Pierce BCA Protein Assay Kit (Thermo Fisher Scientific).

C3H10T1/2 adipocytes [3] = assay: Oxygen consumption rate (Seahorse XF, Cell Mito Stress Test); format: cell-based; conditions: 1 μM; FIGS. 2B and 2C
Procedure: as §1
Oxygen consumption rates (OCRs) were measured with a Seahorse XF Analyzer (Agilent). The differentiated C3H10T1/2 adipocytes […] treated with LPC P-18:0 (1 μM), LPE P-18:0 or vehicle were washed, and maintained in an assay medium (XF DMEM basal medium, pH 7.4 (Agilent)) supplemented with D-(+)-glucose (25 mM) and L-glutamine (4 mM). The XFp Cell Mito Stress Test Kit (Agilent) was used at concentrations of 2.5 μM oligomycin, 0.5 μM carbonyl cyanide-4-(trifluoromethoxy) phenylhydrazone (FCCP) and 0.5 µM rotenone/antimycin A. Basal and maximal OCRs were calculated by subtracting non-mitochondrial respiration. The ATP production rate was calculated by subtracting the OCR induced by oligomycin A from the basal OCR. Spare respiratory capacity was calculated by subtracting baseline OCR from the maximal OCR. The OCR was normalized to protein concentration. Data were analyzed using Agilent Wave software (version 2.6.0.31).

HFD-fed mice [4] = assay: Intraperitoneal insulin tolerance test (ITT); format: in vivo; conditions: 200 μg/kg/day intraperitoneally for 2 weeks, insulin 0.75 units/kg i.p., FIG. 5E
Procedure: (§3) For the diet-induced obesity model, 8-week-old mice were fed a HFD (60% fat, Research Diets, cat #D12492) for 8 weeks. Standardized rodent pellet feed (NCD, Purina, cat #38057) was used as the control feed. Energy expenditure (EE) was estimated by an indirect calorimeter (PhenoMaster, TSE Systems, Germany). Body compositions were measured by nuclear magnetic resonance (NMR) scanning EchoMRI-700 (Echo Medical Systems). To investigate effects of treatment with LPE P-18:0, the mice were fed a HFD for 8 weeks and injected intraperitoneally with LPE P-18:0 (Avanti Polar Lipids, 200 μg/kg/day, cat #852471P) or vehicle for 2 weeks.
For the insulin tolerance test, the mice were fasted for 6 hours before the test, was injected intraperitoneally with insulin (Sigma, 0.75 units/kg body weight, cat #91077C-1G), and blood glucose was measured at a designated time interval.

HFD-fed mice [5] = assay: Glucose tolerance test in HFD-fed mice; format: in vivo; conditions: 200 μg/kg/day intraperitoneally for 2 weeks, FIG. 4
Procedure: as §3

[6] = tested on: adipose tissues of HFD-fed mice; assay: Immunoblot analysis of BAT, iWAT and gWAT of HFD-fed mice; format: in vivo; conditions: 200 μg/kg/day intraperitoneally for 2 weeks, FIGS. 3A, 3B
Procedure: as §2, with “Proteins were denatured in an SDS sample buffer at 95° C. for 5 min, separated in SDS-PAGE gel, and transferred to a PVDF membrane (Bio-Rad). The membrane was blocked with BSA in 5% non-fat dry milk or TBST (Tris-buffered saline containing 0.1% Tween 20) and incubated overnight along with the primary antibody at 4° C., then cultured with horseradish peroxidase (HRP)-conjugated secondary antibody for 1 hour at room temperature. The primary antibody used for Western blot analysis are listed in Reagents or Resources.” left out
For the diet-induced obesity model, 8-week-old mice were fed a HFD (60% fat, Research Diets, cat #D12492) for 8 weeks. […] Body compositions were measured by nuclear magnetic resonance (NMR) scanning EchoMRI-700 (Echo Medical Systems). […]

HFD-fed mice [7] = assay: Indirect calorimetry analysis in HFD-fed mice; format: in vivo; conditions: 200 μg/kg/day intraperitoneally for 2 weeks
Procedure: as §3

HFD-fed mice [8] = assay: Body weight and body composition in diet-induced obesity model; format: in vivo; conditions: 200 μg/kg/day intraperitoneally for 2 weeks, FIG. 5
Procedure: as §3

SMILES	levels of phosphorylated HSL and CREB (C3H10T1/2 adipocytes [1]; 10 μM, 4 hours, vs vehicle (4 mg/mL fatty acid-free BSA), FIG. 6)	intracellular cAMP levels (C3H10T1/2 adipocytes [2])	ATP production rate (C3H10T1/2 adipocytes [3])	maximum respiration rate (C3H10T1/2 adipocytes [3])	spare respiratory capacity (C3H10T1/2 adipocytes [3])	levels of phosphorylated HSL, CREB and PKA substrates (C3H10T1/2 adipocytes [1])	mitochondrial enzymes, including MCAD, ATP5A, UQCRC2, SDHB, NDUFB8, and COXIV (C3H10T1/2 adipocytes [1])	insulin tolerance (HFD-fed mice [4])	glucose tolerance (HFD-fed mice [5])	PKA signaling and mitochondrial activity in the adipose tissues [6]	Food intake (HFD-fed mice [7])	activity (HFD-fed mice [7])	VO2 (HFD-fed mice [7]; FIGS. 5C, 5D)	energy expenditure (HFD-fed mice [7]; FIGS. 5C, 5D)	body fat mass (HFD-fed mice [8])	body weight (HFD-fed mice [8])
CCCCCCCCCCCCCC/C=C\OC[C@@H](O)COP(=O)([O-])OCC[N+](C)(C)C [LPC P-16:0]	significant increase															
CCCCCCCCCCCCCCCC/C=C\OC[C@@H](O)COP(=O)([O-])OCC[N+](C)(C)C [LPC P-18:0]		increase	increase	increase	increase	significant increase	significant upregulation									
CCCCCCCCCCCCCCCC/C=C\OC[C@@H](O)COP(=O)(O)OCCN [LPE P-18:0]		increase	increase	increase	increase	significant increase	significant upregulation	decreased	improves	upregulates	decreased	increased	increased	increased	decreased	decreased
